Laboratory results from US10583119B2, “Compounds, compositions and methods for making the same” (Signum Biosciences, Inc., priority 2008, dated 2020).
pIC50: −log10 of the molar value. Like-named read-outs stand apart in the source and are kept apart here.

Columns and labels:
[1] = target: T1, PP2A (Homo sapiens, UniProt P67775); assay: Phosphatase activity of PP2A using pNPP as substrate; assay type: biochemical; conditions: un-methylated PP2A, non-protein substrate pNPP, absence of ME and MT
T1 construct: made in house
T1 sequence (P67775 whole entry): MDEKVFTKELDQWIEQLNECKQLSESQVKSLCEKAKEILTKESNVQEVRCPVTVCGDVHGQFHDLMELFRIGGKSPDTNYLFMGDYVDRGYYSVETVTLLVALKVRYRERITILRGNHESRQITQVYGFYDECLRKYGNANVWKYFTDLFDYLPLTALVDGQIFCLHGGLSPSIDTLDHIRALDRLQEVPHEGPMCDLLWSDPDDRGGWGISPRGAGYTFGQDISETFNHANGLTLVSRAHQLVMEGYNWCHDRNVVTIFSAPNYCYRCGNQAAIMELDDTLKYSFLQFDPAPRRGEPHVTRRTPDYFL
T1 sequence (P30153 whole entry partner): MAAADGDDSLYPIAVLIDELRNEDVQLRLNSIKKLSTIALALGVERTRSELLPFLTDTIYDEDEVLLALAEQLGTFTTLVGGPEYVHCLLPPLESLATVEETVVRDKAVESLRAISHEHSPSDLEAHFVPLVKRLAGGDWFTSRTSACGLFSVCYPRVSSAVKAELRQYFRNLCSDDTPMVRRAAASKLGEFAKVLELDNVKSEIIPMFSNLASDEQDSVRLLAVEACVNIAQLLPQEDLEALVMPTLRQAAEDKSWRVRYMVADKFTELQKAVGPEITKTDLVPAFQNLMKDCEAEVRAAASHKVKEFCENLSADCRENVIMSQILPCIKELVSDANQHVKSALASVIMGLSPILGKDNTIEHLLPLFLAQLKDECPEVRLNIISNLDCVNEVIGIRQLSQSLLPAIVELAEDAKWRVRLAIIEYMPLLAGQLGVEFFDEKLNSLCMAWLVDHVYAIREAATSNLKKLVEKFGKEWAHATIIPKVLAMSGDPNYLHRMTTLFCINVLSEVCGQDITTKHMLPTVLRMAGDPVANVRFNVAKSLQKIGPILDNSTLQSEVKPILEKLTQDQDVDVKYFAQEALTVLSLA
Protocol: PP2A (10-200 nM) and pNPP (5-10 mM, Sigma) were mixed into 96-well plate (Fisher Scientific Inc.) in 50 μL of the buffer required. Reactions were performed at room temperature, and fully stopped by adding equal volume of 0.1 M EDTA. Production of p-nitrophenol […] was quantified by absorbance of reaction mixtures at 405 nm using the VMax® microplate reader (Molecular Devices).

[2] = target: T1, PP2A; assay: Phosphatase activity of PP2A using phosphorylase a as substrate; assay type: biochemical; conditions: un-methylated PP2A, protein substrate phosphorylase a, absence of ME and MT
Protocol: After the reaction, proteins were precipitated by 50% (NH4)2SO4 (final concentration) twice, and collected by centrifugation. The pellet was re-dissolved and dialyzed in a buffer containing 50 mM Tris-HCl (pH6.9) and ImM DTT for 2×2 L at 4° C. overnight. Phosphorylase a (phospho-phosphorylase b) crystallized during the dialysis. The dialysate was centrifuged 14,000 r.p.m at 4° C. for 30 minutes, the supernatant was removed and purified ^32P-labelled phosphorylase a was re-dissolved in +50% glycerol, and stored at −20° C.
To measure PP2A's phosphatase activity, PP2A (5-20 nM) was incubated with phosphorylase a (5-10 μM) at 37° C. 10% TCA (final concentration) and was added to the reaction to precipitate proteins. Supernatant that contains free ^32P-phosphate group was added into scintillation counting solution (Ecoscint, National Diagnostics), and counted by scintillation counter (LS 6000SE, Beckman).

[3] = target: T2, protein phosphatase 2A specific methyltransferase (MTase) (Homo sapiens, UniProt Q9UIC8); assay: PP2A methylation in 96-well plate format (methyltransferase activity); assay type: biochemical; conditions: purified PP2A, MTase and [3H]-SAM; read-out: MT (IC50)
T2 construct: His; made in house
T2 sequence (Q9UIC8 whole entry): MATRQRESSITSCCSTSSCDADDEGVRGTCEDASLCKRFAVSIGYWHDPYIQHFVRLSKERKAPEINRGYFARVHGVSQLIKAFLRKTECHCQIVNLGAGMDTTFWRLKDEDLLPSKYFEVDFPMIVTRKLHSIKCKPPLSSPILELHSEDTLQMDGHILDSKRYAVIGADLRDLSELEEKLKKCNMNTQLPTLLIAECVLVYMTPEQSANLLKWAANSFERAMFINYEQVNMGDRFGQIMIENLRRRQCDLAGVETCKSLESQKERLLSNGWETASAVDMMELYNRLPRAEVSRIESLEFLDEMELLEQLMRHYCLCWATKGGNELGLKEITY
Protocol: Purified PP2A, MTase and [^3H]-SAM, were incubated in reaction buffer at 37° C. At the end of the reaction, mixture was added onto the membranes of 96-well filter plate (Multiscreen™, Millipore). The membranes were then pre-wetted with 70% ethanol (50 μL/well) and then subsequently washed with water (2×200 μL/well). The reaction in each well was terminated and the proteins (5 μL-20 μL) were precipitated by adding 25% ice-cold TCA. The plate was kept on ice for 30 minutes to ensure completion of protein precipitation. Excess of the free SAM was then removed by washing with 5% cold TCA ([…]) and 70% cold ethanol (2×100 μL/well). Membranes were air-dried, radioactivity in each well was counted by TopCount^NXT scintillation counter (Packard) with 25 μL/well of Microsinct™ 20 (PerkinElmer).

[4] = target: T3, protein phosphatase specific protein methylesterase (MEase) (Homo sapiens, UniProt Q9Y570); assay: PP2A demethylation with [3H]-SAM and purified proteins (methylesterase activity); assay type: biochemical
T3 construct: made in house
T3 sequence (Q9Y570 1-386): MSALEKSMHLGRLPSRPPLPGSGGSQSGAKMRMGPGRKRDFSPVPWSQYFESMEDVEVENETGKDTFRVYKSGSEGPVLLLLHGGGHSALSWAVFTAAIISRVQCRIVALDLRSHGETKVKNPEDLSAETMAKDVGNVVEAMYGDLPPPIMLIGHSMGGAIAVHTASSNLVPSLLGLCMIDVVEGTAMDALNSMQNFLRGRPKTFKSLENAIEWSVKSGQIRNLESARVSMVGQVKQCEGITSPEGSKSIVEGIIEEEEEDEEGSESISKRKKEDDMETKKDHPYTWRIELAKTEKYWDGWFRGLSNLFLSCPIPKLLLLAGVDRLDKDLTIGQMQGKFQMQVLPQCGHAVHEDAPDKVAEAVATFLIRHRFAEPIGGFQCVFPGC
Protocol: PP2A (methylated and unmethylated) were eluted with 1.6 mL of Buffer A containing 350 mM NaCl. Fractions (0.2 mL each) were collected and the radioactivity in each fraction was measured using the scintillation counter (LS 6000SE, Beckman). Fractions with highest radioactivity were containing purified methylated PP2A were pooled with a total volume of 0.6 mL-0.8 mL. Purified methylated PP2A (50 nM-100 nM) was incubated with MEase (5 nM-20 nM) in 20 μl-50 μl reaction at room temperature for 30 minutes. The reaction was terminated by adding TCA (2 μl-6 μl) to a final concentration of 10%. Released [^3H]-methanol in supernatants was counted with scintillation counter (LS 6000SE, Beckman).

[5] = system: MPTP Mouse Model of Parkinson's Disease; assay: MPTP-induced neurotoxicity in MPTP mouse model of Parkinson's disease (striatal tyrosine hydroxylase ELISA); assay type: in vivo, C57BL/6J mice; conditions: mice on control diets, relative to saline-injected mice
Excerpt: MPTP (1-methyl-4-phenyl-1,2,3,6-tetrahydropyridine) is routinely used as a chemical agent that induces Parkinson's disease-like neurodegeneration in cellular and animal models. Both Parkinson's Disease and MPTP-induced neurotoxicity are associated with a number of different biomarkers including reduction of tyrosine hydroxylase levels and activity. Tyrosine hydroxylase is a key enzyme in the dopamine biosynthesis pathway as it is involved in the conversion of tyrosine to […]. Tyrosine hydroxylase activity is regulated by its phosphorylation status and PP2A is known to be involved in this regulation.
C57BL/6J mice, aged 2-3 months were fed ad libitum, either standard rodent chow (Control), or rodent chow formulated with 0.1 g Compound I-63, or 0.001 g Compound I-63 per 100 g chow (0.1% and 0.001% Compound I-63, respectively); water was changed weekly. Mice were housed at 23° C., on a 12 hour light and dark cycle, with 6 mice per cage. After 2 weeks, 8-12 mice each from the Control, 0.1% Compound 1-63 and 0.001% Compound I-63 groups were injected with either saline, or 10 mg/kg MPTP i.e., four times, every 2 hours, on the same day. Mice were then maintained on their respective feeds for another week, at which point they were sacrificed by cervical dislocation and brains dissected for biochemical analyses.
Striatal tyrosine hydroxylase (TH) content was measured by ELISA as follows. Ninety-six well microliter plates (Thermo Labsystems) were incubated overnight at 4° C. with monoclonal anti-TH antibody (1:500; Calbiochem) in 8 mM sodium phosphate, 2 mM potassium phosphate, and 0.14 M sodium chloride, pH 7.4 (PBS). Wells were washed four times with PBS and then blocked for 1 hour using 5% (w/v) Carnation (Nestle) nonfat dry milk in PBS. Striatal tissue samples were homogenized by sonication in PBS-0.5% Triton X-100 (PBST) with 0.25% (w/v) SDS. […] The reaction product was measured fluorometrically within the linear range of detection (excitation:emission ratio of 530:580 nm). […] Data were expressed as percent TH levels in MPTP-treated mice relative to saline-injected mice. […]

[6] = purified methylated PP2A and MEase, read-out: ME (IC50)

| SMILES | pIC50 [1] | pIC50 [2] | pIC50 [3] | pIC50 [4, 6] | reduction of tyrosine hydroxylase levels [5] | pIC50 [4] |
| --- | --- | --- | --- | --- | --- | --- |
| CCCCCCCCCCCCCCCCCCNC(=O)Cc1c[nH]c2ccc(O)cc12 [Compound I-39, 2-(5-hydroxy-1H-indol-3-yl)-N-octadecylacetamide] | 4.00 to 5.00 | 4.00 to 5.00 | 4.00 to 5.00 | > 5.00 |  |  |
| CCCCCCCCCCCCCCCCNC(=O)NC(Cc1c[nH]c2ccc(O)cc12)C(=O)O (centres unmarked) [Compound I-78, 2-(3-hexadecylureido)-3-(5-hydroxy-1H-indol-3-yl)propanoic acid] | < 4.00 |  | > 5.00 | > 5.00 |  |  |
| CCCCCCCCCCCCCCCCCCC(=O)NCCc1c[nH]c2ccc(O)cc12 [Compound I-67, N-(2-(5-hydroxy-1H-indol-3-yl)ethyl)nonadecanamide] | 4.00 to 5.00 | < 4.00 |  | < 4.00 |  |  |
| CCCCCCCCCCCCCCCCCCCC(=O)NCCc1c[nH]c2ccc(F)cc12 [Compound I-35, N-[2-(5-fluoro-1H-indol-3-yl)ethyl]icosanamide] | 4.00 to 5.00 | < 4.00 | > 5.00 | > 5.00 |  |  |
| CCCCCCCCCCCCCCCCCCNC(=O)NC(Cc1c[nH]c2ccc(O)cc12)C(=O)O (centres unmarked) [Compound I-79, 3-(5-hydroxy-1H-indol-3-yl)-2-(3-octadecylureido)propanoic acid] | < 4.00 |  | > 5.00 | 4.00 to 5.00 |  |  |
| CCCCCCCCCCCCCCCCCCNC(=O)NCCc1c[nH]c2ccc(O)cc12 [Compound I-31, 1-[2-(5-hydroxy-1H-indol-3-yl)ethyl]-3-octadecylurea] | 4.00 to 5.00 | 4.00 to 5.00 | 4.00 to 5.00 | > 5.00 |  |  |
| CCCCCCCCCCCCCCCCCC(=O)NCCc1c[nH]c2ccccc12 [Compound I-65, N-(2-(1H-indol-3-yl)ethyl)stearamide] | < 4.00 | 4.00 to 5.00 | > 5.00 | > 5.00 |  |  |
| CCCCCCCCCCCCCCCCNC(=O)NCCc1c[nH]c2ccc(O)cc12 [Compound I-30, 3-hexadecyl-1-[2-(5-hydroxy-1H-indol-3-yl)ethyl]urea] | 4.00 to 5.00 | 4.00 to 5.00 | 4.00 to 5.00 | > 5.00 |  |  |
| CCCCCCCCCCCCCCCCCCCC(=O)NCCc1c[nH]c2ccc(OC(C)=O)cc12 [Compound I-33, 3-(2-icosanamidoethyl)-1H-indol-5-yl acetate] | 4.00 to 5.00 |  | > 5.00 | > 5.00 |  |  |
| CN1CC=C(c2ccccc2)CC1 [MPTP, 1-methyl-4-phenyl-1,2,3,6-tetrahydropyridine, reference compound] |  |  |  |  | 60% |  |
| CCCCCCCCCCCCCCCCCCCC(=O)NCCc1c[nH]c2ccc(C)cc12 [Compound I-36, N-[2-(5-methyl-1H-indol-3-yl)ethyl]icosanamide] | 4.00 to 5.00 | < 4.00 | > 5.00 | 4.00 to 5.00 |  |  |
| CCCCCCCCCCCCCCCCCCCC(=O)NCCc1c[nH]c2ccccc12 [Compound I-64, N-(2-(1H-indol-3-yl)ethyl) icosanamide] | < 4.00 | 4.00 to 5.00 | > 5.00 | > 5.00 |  |  |
| CCCCCCCCCCCCCCCC(=O)NCCc1c[nH]c2ccc(O)cc12 [Compound I-76, N-(2-(5-hydroxy-1H-indol-3-yl)emyl)palmitamide] | < 4.00 |  | < 4.00 | < 4.00 |  |  |
| CCCCCCCCCCCCCCCCCC(=O)NCCc1c[nH]c2ccc(O)cc12 [Compound I-66, N-(2-(5-hydroxy-1H-indol-3-yl)ethyl)stearamide] | 4.00 to 5.00 | < 4.00 | > 5.00 | > 5.00 |  |  |
| CCCCCCCCCC(=O)NCCc1c[nH]c2ccc(O)cc12 [Compound I-77, N-(2-(5-hydroxy-1H-indol-3-yl)ethyl)decanamide] | < 4.00 |  | < 4.00 | < 4.00 |  |  |
| CCCCCCCCCCCCCCCCCCCC(=O)N(C)CCc1c[nH]c2ccccc12 [Compound I-38, N-[2-(1H-indol-3-yl)ethyl]-N-methylicosanamide] | < 4.00 |  | < 4.00 |  |  | < 4.00 |
| CCCCCCCCCCCCCCCCCCCC(=O)NCCc1c[nH]c2ccc(OC(=O)CCC(=O)O)cc12 [Compound I-32, 4-{[3-(2-icosanamidoethyl)-1H-indol-5-yl]oxy}-4-oxobutanoic acid] | 4.00 to 5.00 | 4.00 to 5.00 | > 5.00 | > 5.00 |  |  |
| CCCCCCCCCCCCCCCCNC(=O)C(Cc1c[nH]c2ccccc12)NC(=O)OC(C)(C)C (centres unmarked) [Compound I-80, tert-butyl 1-(hexadecylamino)-3-(1H-indol-3-yl)-1-oxpopran-2-ylcarbamate] | 4.00 to 5.00 |  | > 5.00 | > 5.00 |  |  |
| CCCCCCC(O)CCCCCCCCCCC(=O)NCCc1c[nH]c2ccc(O)cc12 (centres unmarked) [Compound I-29, 12-hydroxy-N-[2-(5-hydroxy-1H-indol-3-yl)ethyl] octadecanamide] | > 5.00 | < 4.00 | 4.00 to 5.00 | 4.00 to 5.00 |  |  |
